# Results published in patent US11013735B2, “Specific Akt3 inhibitor and uses thereof” (Augusta University Research Institute, Inc., priority 2016, dated 2021).
# Key:
# TC-1 tumor [1] = experiment: TC-1 tumor growth and survival, JJ64-C alone or with vaccine; type: in vivo, C57BL/6 mice; settings: i.p. every other day from day 6
# Procedure: (§1) C57BL/6 mice (n=5/group) were injected s.c. in the right flank with 7×10^4 TC-1 cells. Mice from appropriate groups were injected weekly with vaccine (s.c.) or DMSO 5% as a control. Mice were also treated with vaccine (weekly) along with either 10 mg/kg or 20 mg/kg of JJ64-C (or FIG. 7A or Formula 18) injected (i.p.) every other day starting on day 6 after tumor implantation throughout the experiment.
# FIGS. 7C and 7D are bar diagrams representing average tumor volumes of mice for each group. FIG. 7E is a Kaplan-Meier plot of the overall survival. Statistical significance was determined by Log-rank (Mantel-Cox) test.
# (§2) Statistical significance was determined by one-way ANOVA with Tukey's multiple comparison test (*, p<0.05; **, p<0.01; ***, p<0.001).
# [2] = tested on: iTreg induction (CD4+FoxP3+ cells); experiment: iTreg induction from CD4+FoxP3- cells (TGF-β), flow cytometry; type: cell-based; settings: anti-CD3, IL2, anti-CD28, TGF-β, 72 hrs
# Procedure: (§3) FACS-sorted CD4+FoxP3− cells were plated on anti-CD3-coated plates with soluble IL2 and anti-CD28 with TGF-β (induction) Cell were induced for iTregs with JJ64-B (FIG. 6A) without inhibitor (Induction-IND)) for 72 hrs. Cells were harvested and the frequency of CD4+FoxP3+ cells was measured by flow cytometry.
# as §3, with “JJ64-C (JJ64 modified drug C or Formula 18) or” for “JJ64-B (FIG. 6A)”
# as §3, with “JJ64-D (JJ64 modified drug D or FIG. 9A) or” for “JJ64-B (FIG. 6A)”
# Akt3 = biological target: T1, Akt3 (Mus musculus, UniProt Q9WUA6); experiment: Immunoblot of Akt3 phosphorylation (pAkt3) in activated nTregs; type: cell-based, WT C57BL/6J (foxp3-GFP) mice; settings: nTregs on anti-CD3 with IL2 and anti-CD28, different concentrations of inhibitor, 72 hrs
# T1 construct: nTreg cell lysates prepared on day 3 (72 hrs) of treatment were separated by SDS-PAGE and immunoblotted; endogenous in cells; host or cells: FACS-sorted primary nTregs from WT C57BL/6J (foxp3-GFP) mice
# T1 sequence (Q9WUA6 whole entry): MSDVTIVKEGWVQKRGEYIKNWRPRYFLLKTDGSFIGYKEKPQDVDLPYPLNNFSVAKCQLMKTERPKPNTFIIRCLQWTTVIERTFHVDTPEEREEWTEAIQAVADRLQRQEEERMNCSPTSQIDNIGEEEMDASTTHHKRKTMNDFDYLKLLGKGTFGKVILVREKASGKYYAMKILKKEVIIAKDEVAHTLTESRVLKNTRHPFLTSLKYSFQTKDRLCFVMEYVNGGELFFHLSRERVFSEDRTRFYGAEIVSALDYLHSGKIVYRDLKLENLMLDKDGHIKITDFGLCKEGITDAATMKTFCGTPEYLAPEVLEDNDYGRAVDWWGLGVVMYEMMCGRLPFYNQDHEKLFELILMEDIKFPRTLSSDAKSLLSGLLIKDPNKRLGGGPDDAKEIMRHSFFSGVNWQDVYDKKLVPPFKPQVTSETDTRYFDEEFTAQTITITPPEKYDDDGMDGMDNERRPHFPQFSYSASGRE
# Procedure: (§4) FACS-sorted natural regulatory T cells (nTregs), from WT C57BL/6J (foxp3-GFP) mice were plated on anti-CD3-coated plates and cultured in activation media (IL2 and anti-CD28) without inhibitors (Stimulated) and with different concentrations of inhibitor 4-[(6-nitroquinolin-4-yl)amino]-N-[4-(pyridin-4-ylamino)phenyl]benzamide (also referred to as JJ64-E) for 72 hrs. For negative control (Non-stimulated-NS) cells were left in media containing IL-2 for 72 hrs. nTreg cell lysates prepared on day 3 (72 hrs) of treatment were separated by SDS-PAGE and immunoblotted with specific antibodies (pAkt1) or pAkt3; actin was used as loading control.
# Akt1 = biological target: T2, Akt1 (Mus musculus, UniProt P31750); experiment: Immunoblot of Akt1 phosphorylation (pAkt1) in activated nTregs; type: cell-based, WT C57BL/6J (foxp3-GFP) mice; settings: nTregs on anti-CD3 with IL2 and anti-CD28, different concentrations of inhibitor, 72 hrs
# T2 construct: endogenous in cells; host or cells: FACS-sorted primary nTregs from WT C57BL/6J (foxp3-GFP) mice
# T2 sequence (P31750 whole entry): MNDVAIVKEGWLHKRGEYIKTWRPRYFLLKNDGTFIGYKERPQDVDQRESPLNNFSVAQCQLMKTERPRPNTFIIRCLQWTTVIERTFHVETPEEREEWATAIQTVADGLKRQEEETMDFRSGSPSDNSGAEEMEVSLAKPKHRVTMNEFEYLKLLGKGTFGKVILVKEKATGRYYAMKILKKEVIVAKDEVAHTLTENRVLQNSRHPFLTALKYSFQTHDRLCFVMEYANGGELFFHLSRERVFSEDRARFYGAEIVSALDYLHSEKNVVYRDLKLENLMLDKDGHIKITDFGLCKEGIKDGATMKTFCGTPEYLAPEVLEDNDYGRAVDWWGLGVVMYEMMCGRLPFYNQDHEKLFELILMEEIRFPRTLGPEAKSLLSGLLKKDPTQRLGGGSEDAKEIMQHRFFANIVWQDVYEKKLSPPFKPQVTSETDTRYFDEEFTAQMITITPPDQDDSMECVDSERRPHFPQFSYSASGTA
# Procedure: as §4
# nTregs = experiment: Proliferation (level of VCT) of FACS-sorted nTregs by flow cytometry; type: cell-based, C57BL/6J(foxp3-GFP); settings: anti-CD3, IL2 and anti-CD28, 72 hrs, live gated cells
# Procedure: (§5) FACS-sorted nTregs, CD4+ and CD8+ T cells from C57BL/6J(foxp3-GFP) were plated on anti-CD3-coated plates and cultured in activation media (IL2 and anti-CD28) without inhibitors (Stimulated) and with inhibitors (JJ64-E) for 72 hrs. For negative control (Non-stimulated-NS) cells were left in media containing IL-2 for 72 hrs. After 72 hrs Proliferation (level of VCT) in live gated cells was measured by flow cytometry.
# CD8+ T cells = experiment: Proliferation (level of VCT) of FACS-sorted CD8+ T cells by flow cytometry; type: cell-based, C57BL/6J(foxp3-GFP); settings: anti-CD3, IL2 and anti-CD28, 72 hrs, live gated cells
# Procedure: as §5
# CD4+ T cells = experiment: Proliferation (level of VCT) of FACS-sorted CD4+ T cells by flow cytometry; type: cell-based, C57BL/6J(foxp3-GFP); settings: anti-CD3, IL2 and anti-CD28, 72 hrs, live gated cells
# Procedure: as §5
# Tregs (CD4+Foxp3+) = experiment: Percentage of Tregs in vivo in TC-1 tumor model; parameters: species or system WT C57BL/6J mice; settings: TC-1 tumor-bearing mice, 5 mg/kg or 10 mg/kg i.p. every day from day 10, analysed day 15
# Procedure: (§6) WT C57BL/6J mice (n=3/group) were injected s.c. in the right flank with 7×10^4 TC-1 cells. Mice from appropriate groups were treated with either 5 mg/kg or 10 mg/kg of JJ64-E injected (i.p.) every day starting on day 10 after tumor implantation throughout the experiment. All groups were euthanized on day 15 of TC-1 implantation. The percentage of Tregs (CD4+Foxp3+) was analyzed by flow cytometry.
# as §2
# [3] = tested on: CD8 and other (FoxP3neg) CD4 T cells; experiment: Percentage of CD4 and CD8 T cells in vivo in TC-1 tumor model; parameters: species or system WT C57BL/6 mice; settings: TC-1 tumor-bearing mice, 5 mg/kg or 10 mg/kg i.p. everyday from day 10, day 15, spleen
# Procedure: as §6, with “C57BL/6 4-6 weeks old female” for “C57BL/6J”, “(n=5/group)” for “(n=3/group)”, “everyday” for “every day”, “CD4 and CD8 were” for “Tregs (CD4+Foxp3+) was”, “analyzed in splenic CD4+ cells” for “analyzed”
# TC-1 tumor [4] = experiment: TC-1 tumor growth and survival, JJ64-E alone or with vaccine; type: in vivo, C57BL/6 mice; settings: i.p. every day from day 6
# Procedure: as §1, with “JJ64-E” for “JJ64-C (or FIG. 7A or Formula 18)”, “every” for “every other”
# FIGS. 5B and 5C are bar diagrams showing average tumor volumes of mice for each group. FIG. 5D is a Kaplan-Meier plot of the overall survival. Statistical significance was determined by Log-rank (Mantel-Cox) test.
# as §2
# [5] = high dose as monotherapy (10 or 20 mg/kg)
# [6] = lower dose combined with weekly vaccine s.c. (10 or 20 mg/kg)
# [7] = high dose as monotherapy (10 or 20 mg/kg tested)
# [8] = lower dose combined with weekly vaccine s.c. (10 or 20 mg/kg tested)
Compound,TC-1 tumor growth (tumor volume) (TC-1 tumor [1]; [5]),overall survival (Kaplan-Meier) (TC-1 tumor [1]; [5]),TC-1 tumor growth (tumor volume) (TC-1 tumor [1]; [6]),overall survival (Kaplan-Meier) (TC-1 tumor [1]; [6]),iTreg induction (frequency of CD4+FoxP3+ cells) [2],Akt3 phosphorylation in Tregs (pAkt3 immunoblot) (Akt3),Akt1 phosphorylation in Tregs (pAkt1 immunoblot) (Akt1),Treg proliferation (level of VCT) (nTregs),CD8 T cell proliferation (level of VCT) (CD8+ T cells),other CD4 T cell proliferation (level of VCT) (CD4+ T cells),percentage of Tregs (CD4+Foxp3+) in vivo (Tregs (CD4+Foxp3+)),CD8 T cells in vivo [3],other (FoxP3neg) CD4 T cells in vivo [3],TC-1 tumor growth (tumor volume) (TC-1 tumor [4]; [7]),overall survival (Kaplan-Meier) (TC-1 tumor [4]; [7]),TC-1 tumor growth (tumor volume) (TC-1 tumor [4]; [8]),overall survival (Kaplan-Meier) (TC-1 tumor [4]; [8])
O=C(Nc1cccc(Nc2ccncc2)c1)c1cccc(Nc2ccnc3ccc(F)cc23)c1 [compound 18],inhibits TC-1 tumor growth,prolongs the survival,inhibits TC-1 tumor growth,prolongs the survival,inhibits iTregs induction,–,–,–,–,–,–,–,–,–,–,–,–
O=C(Nc1ccc(Nc2ccncc2)cc1)c1ccc(Nc2ccnc3ccc([N+](=O)[O-])cc23)cc1 [4-[(6-nitroquinolin-4-yl)amino]-N-[4-(pyridin-4-ylamino)phenyl]benzamide],–,–,–,–,–,inhibits Akt3,not Akt1 phosphorylation,selectively inhibits Treg proliferation,sparing CD8,sparing CD8 and other CD4 T cells,decreases Tregs in vivo,does not affect CD8,does not affect CD8 and other (FoxP3neg) CD4 T cells,inhibits TC-1 tumor growth,prolongs the survival,inhibits TC-1 tumor growth,prolongs the survival
